{
  "source": "patent US11471478B2",
  "about": "“Use of cyclodextrins in diseases and disorders involving phospholipid dysregulation” (priority 2017, dated 2022)",
  "key": {"[1]": {"system": "SwN2a cells", "details": "cited from earlier work"}, "[2]": {"details": "cited from earlier work"}, "[3]": {"details": "long-term parenteral, 200 mg/kg; cited from earlier work"}, "[4]": {"system": "whole blood", "details": "cited from earlier work"}, "[5]": {"details": "rats, suppositories containing triglycerides (Witepsol H5); cited from earlier work"}, "[6]": {"system": "mice/rats", "details": "in vivo; cited from earlier work"}, "[7]": {"system": "cats", "details": "doses of 4-8 g/kg; cited from earlier work"}, "[8]": {"details": "cited from earlier work", "remark": "listed apart in the source"}, "[9]": {"system": "Tg19959 mice", "details": "four months of subcutaneous administration; cited from earlier work"}, "[10]": {"system": "BBB", "details": "cited from earlier work"}, "[11]": {"details": "parenteral, 12 g twice daily for 15 days; cited from earlier work"}, "[12]": {"details": "cited from earlier work", "remark": "listed apart in the source"}, "[13]": {"system": "rats", "details": "rat, in vivo, iv; cited from earlier work"}, "[14]": {"system": "MDA-MB-231 breast cancer cells", "experiment": "NSG mice injected with human MDA-MB-231 breast cancer cells", "type": "in vivo", "description": "NSG mice (NOD.Cg-Prkdcscid Il2rgtm1Wjl/SzJ, strain #005557 (10 wk old) were obtained from Jackson Laboratories (Bar Harbor, Me.), housed in isolated quarters, and fed with autoclaved water and food.\nAn MDA-MB-231 cell line was obtained (ATCC) and kept frozen in liquid nitrogen. Upon start of culture, cells were thawed (1.5 min in 37° C. water) and transferred to DMEM/F-12 supplemented with 5% FBS, 2 mM L-glutamine, 1 mM sodium pyruvate, and 0.02 mM non-essential amino acids. Cells were grown to several millions in 60 mm dishes at 70-80% confluence. Before injection, cells were briefly rinsed twice in PBS followed by Versene (EDTA, Invitrogen) and placed on ice with excess phosphate-buffered saline and phenol red-free matrigel basement membrane extract to a concentration of about 15 mg/mL matrigel. 100 μL cell mixture (20,000 cells or saline only) were injected into the lactiferous duct of the 3rd or 4th mammary glands under brief isofluorane anesthesia. Groups of 15 mice each were injected IP with 800 mg/kg of HP-α-CD, HP-β-CD per week (over four days, Mon, Tue, Thu, Fri), or saline (control) for six weeks. Size of the primary tumor was measured weekly.\nBreast tissue were palpated and measured twice a week with a micro-metric analytical device scaled to 1 mm precision. Mice were weighed weekly on a digital scale (0.1 g precision).\nAt the end of the study period, mice were anaesthetized with isofluorane with 1× phosphate-buffered saline (PBS) and subsequently with 4% formaldehyde in PBS. Tissue from lung and liver were removed and fixated in formalin for microscopic examination. Metastases were visualized and counted by tissue embedding in paraffin and sectioning with immunohistochemistry and histological stain (H&E) and immunostained with anti-HLA antibody. After blocking for 1 h with BSA (5%, frac V), the anti-HLA was incubated at 4° C. overnight, washed for 1 h in PBS, then incubated with biotinylated anti-mouse IgG for 1 h at room temperature. After washing with PBS, metastases were detected on the slide using Envision (Dako).\nAfter blood collection, whole blood samples were centrifuged (at 10,000 m/s^2 for 15 min and then at 100,000 m/s^2 for 10 min), and plasma was isolated. The samples were stored at −80° C. until analysis.\nPrior to analysis (30 min), samples and assay reagents were equilibrated to room temperature. The samples were run at a 1:4 dilution and quantified in duplicate using a multi-plex mouse panel for quantification of IL-1β, IL-18, IL-6, IL-8, IL-17A, and GM-CSF (Bio-Plex Pro assays, Bio-Rad Laboratories) on a Luminex Bio-Plex 200 System (Bio-Rad Laboratories)."}, "[15]": {"details": "cited from earlier work", "remark": "listed apart in the source"}, "[16]": {"details": "cited from earlier work", "remark": "listed apart in the source"}, "[17]": {"system": "keratinocytes", "details": "cited from earlier work"}, "[18]": {"system": "children with NPC", "details": "doses of up to 1000 mg/kg/d; cited from earlier work"}, "[19]": {"system": "MDA-MB 231 and MCF-7 human breast epithelial cell lines", "experiment": "Wound healing / gap closure migration assay", "type": "cell-based", "details": "2 h treatment, MDA-MB 231 and MCF-7", "description": "Published results have shown that β-CD inhibits human MDA-MB 231 cell migration (Guerra F S, Sampaio LdS, et al. (2016) Translational Medicine Communications 1:3). This inhibition was attributed to the ability of β-CD to “deplete cholesterol”. β-CD, however, depletes also phospholipids. […] Cells were cultured in 24-well culture plates (Cytoselect CBA-120, 0.9 mm wound healing/gap closure migration assay) for 24 h with wound healing insert in place. Cells were then treated for 2 h with HP-β-CD, HP-α-CD, or control. Protocol: Warm up the 24-well plate (CBA-120, Cell BioLabs Inc.) with 0.9 mm CytoSelect Wound Healing Inserts at room temperature for 10 min. Using sterile forceps, orient the desired number of inserts in the plate wells with their “wound field” aligned in the same direction. […] Add 500 μL of cell suspension to each well by carefully inserting the pipette tip through the open end at the top of the insert. For optimal cell dispersion, add 250 μL of cell suspension to either side of the open ends at the top of the insert. Incubate cells in a cell culture incubator for 12-24 hours. Carefully remove the insert from the well to begin the wound healing assay. Use sterile forceps to grab and lift the insert slowly from the plate well. Slowly aspirate and discard the media from the wells. Wash wells with media to remove dead cells and debris. Finally, add media to wells to keep cells hydrated. Repeat wash if wells still have debris or unattached cells. When washing is complete, add media with FBS and/or compounds to continue cell culture and wound healing process. Agents that inhibit or stimulate cell migration can be added directly to the wells. Incubate cells in a cell culture incubator (2 hours) and then wash cells with PBS and then add fresh media without compounds. Incubate 12-24 hours before wash and fixing. Remove the fixation solution and add 400 μL of Cell Stain Solution to each well. Allow the stain to incubate with the cells for 15 minutes at room temperature. Aspirate and discard the solution. Carefully wash each stained well 3× with deionized water. Discard washes and allow cells to dry at room temperature. Cells that migrated into the wounded area or protruded from the border of the wound were visualized and photographed under an inverted microscope. Determine the surface area of the defined wound area: Total Surface Area=0.9 mm×length. Determine the surface area of the migrated cells into the wound area: Migrated Cell Surface Area=length of cell migration (mm)×2× length. Percent Closure (%)=Migrated Cell Surface Area/Total Surface Area×100 (see FIG. 36)"}, "[20]": {"details": "IP 800 mg/kg per week for six weeks"}},
  "note": "Values joined by “and” are separate entries in the source; they are usually repeats but may differ in a detail not shown here. Equal entries are not always repeated.",
  "data": [
    {"smiles": "CC(O)COC[C@H]1O[C@@H]2O[C@H]3[C@H](O)[C@@H](O)[C@@H](O[C@H]4[C@H](O)[C@@H](O)[C@@H](O[C@H]5[C@H](O)[C@@H](O)[C@@H](O[C@H]6[C@H](O)[C@@H](O)[C@@H](O[C@H]7[C@H](O)[C@@H](O)[C@@H](O[C@H]8[C@H](O)[C@@H](O)[C@@H](O[C@H]1[C@H](O)[C@H]2O)O[C@@H]8COCC(C)O)O[C@@H]7COCC(C)O)O[C@@H]6COCC(C)O)O[C@@H]5COCC(C)O)O[C@@H]4COCC(C)O)O[C@@H]3COCC(C)O", "note": "(stereo partly drawn) [HP-β-CD, hydroxypropyl-beta-cyclodextrin]", "values": [
      {"measurement": "level of membrane cholesterol", "setting": "[1]", "result": "reduced"},
      {"measurement": "levels of Aβ42", "setting": "[1]", "result": "dramatically lowered"},
      {"measurement": "Solubility in water", "setting": "[2]", "result": ">600 g/l and >600 ^2) g/l"},
      {"measurement": "bone mineral density (BMD)", "setting": "[3]", "result": "decrease bone mineral density (BMD)"},
      {"measurement": "whole blood TD50", "setting": "[4]", "result": 9, "unit": "mM/L"},
      {"measurement": "rectal absorption", "setting": "[5]", "result": 26, "unit": "%"},
      {"measurement": "LD50 i.v./i.p. in mice/rats", "setting": "[6]", "result": 10000, "unit": "mg/kg"},
      {"measurement": "hearing", "setting": "[7]", "result": "causes permanent hearing loss"},
      {"measurement": "Permitted Daily Exposure (PDE) threshold, parenteral", "setting": "[8]; CHMP 2014", "result": 10, "unit": "mg/kg/day"},
      {"measurement": "Permitted Daily Exposure (PDE) threshold, parenteral, revised", "setting": "[8]; Oct. 9, 2017", "result": 200, "unit": "mg/kg/day"},
      {"measurement": "spatial learning and memory deficits", "setting": "[9]", "result": "significantly improved spatial learning and memory deficits"},
      {"measurement": "Transport across BBB", "setting": "[10]; 2 h, 1 mM", "result": "6.6 (1 mM) %"},
      {"measurement": "BBB breakdown", "setting": "[10]", "result": 2.5, "unit": "mM"},
      {"measurement": "toxicity on the BBB model", "setting": "[10]", "result": "similarly safe"},
      {"measurement": "side effects", "setting": "[11]", "result": "No side effects were observed"},
      {"measurement": "i.v. toxicity, 500 mg/kg", "setting": "[12]", "result": "no damage"},
      {"measurement": "i.v. toxicity, 1 g/kg daily", "setting": "[13]", "result": "no signs ^6)"},
      {"measurement": "Tumor volume, median", "setting": "[14]; [20]", "result": 378, "unit": "mm3"},
      {"measurement": "effect on tumor volume", "setting": "[14]; [20]", "result": "effective"},
      {"measurement": "plasma cytokines (IL-1β, IL-18, IL-6, IL-8, IL-17A, GM-CSF) versus Vehicle", "setting": "[14]; conventional 0.05 level", "result": "significant in four other markers (not in IL-8)"},
      {"measurement": "mice that did not develop lung metastases", "setting": "[14]; groups of 15 mice", "result": 3, "unit": "mice"},
      {"measurement": "mice who died", "setting": "[14]; groups of 15 mice", "result": "two"},
      {"measurement": "half-life (t1/2) after i.v. in rats", "setting": "[15]; i.v.", "result": 20, "unit": "min"},
      {"measurement": "oral absorption in rats", "setting": "[15]; oral", "result": "≤3", "unit": "%"},
      {"measurement": "excreted after i.v. unchanged in urine", "setting": "[16]", "result": "~90", "unit": "%"},
      {"measurement": "caspase-dependent apoptotic cell death", "setting": "[17]", "result": "not"},
      {"measurement": "tolerability", "setting": "[18]", "result": "well tolerated"},
      {"measurement": "cell migration / wound closure, concentration dependence", "setting": "[19]", "result": "migration decreased with higher concentration"}
    ]}
  ]
}
